Entries after “also recorded” stand apart in the source; their conditions may differ.

Data set [1] in a line: Urinary and fecal excretion after a single IV injection. It counts as in vivo, BALB/C mice. The protocol:
Pyrrole–imidazole polyamide pharmacokinetic studies were performed in 10- to 12-week-old female BALB/C mice (Charles River). Polyamides were solubilized in PBS (1) or PBS/DMSO (2) and administered via intravenous (IV) tail vein injection at concentrations of 7.5 and 5 mg/kg, respectively. For each experiment, groups of 3 animals were euthanized at 0.083, 0.25, 0.5, 1, 2, 4, 8, and 24 h after injection. Animals designated for the 4, 8, and 24 h time points were housed in metabolic cages for collection of urine and feces as described below. All animals used in the pharmacokinetic experiments were performed under an approved protocol at the City of Hope.
Urine and fecal samples were collected using metabolic cages (Ancare, Techniplast Metabolic Rack, 12 cages by Nalgene). Urine samples were collected at 3 time points over 24 h, and fecal samples were collected at 8 and 24 h time points. […]
Plasma pharmacokinetic parameters were derived from polyamide concentration profiles using both non-compartmental and compartmental methods. […] Additional plasma pharmacokinetic parameters determined from the compartmental analysis include the alpha and beta half-lives (t 1/2) and the apparent volume of distribution (V d). […] Urinary and fecal excretion data were expressed as the cumulative percentage of the administered dose.

A further data set can be described thus: pH stability analysis. The following applies: buffers at 37 °C for 24 h; analytical HPLC. Type of data set: physicochemical. As to the method:
The pH stability of Py-Im polyamides was analyzed as previously described. In summary, 15 μL of a 10 μM solution of polyamide 1 or 2 in DMSO was incubated with 85 μL of buffer with pH of 2.5, 4, 7, or 10 (Fluka) at 37 °C for 24 h. After incubation, the sample was mixed with an equal volume of N,N-dimethylformamide and sonicated briefly. Next, 20 μL of the sample solution was mixed with 180 μL of aqueous buffer containing 100 mM NH4OAc and 25 μM methyl 4-nitro-1H-pyrrole-2-carboxylate as an internal standard. Analytical HPLC analysis was performed on a Beckman analytical HPLC.

The subject of data set [2] is androgen receptor (AR) signaling; PSA mRNA in LNCaP prostate cancer cells. The note with it: cited from earlier work.
The nature of another data set: Aqueous solubility. The note with it: 2 requires a polar aprotic cosolvent like DMSO for administration. It counts as physicochemical.
Details of data set [3]: method as in PMID 19413319. The note with it: previous ADMET study; cited from earlier work.
Data set [4] deals with 5′-WGWWCW-3′ sequence (androgen response element DNA). Further details: method as in PMID 18459783, PMID 22080545, PMID 17566103. The following applies: cited from earlier work.

Turning to `CN(CCCNC(=O)c1cccc(C(=O)O)c1)CCCNC(=O)c1cc(NC(=O)c2cc(NC(=O)c3cc(NC(=O)c4nc(NC(=O)[C@H](N)CCNC(=O)c5cc(NC(=O)c6cc(NC(=O)c7cc(NC(=O)c8nccn8C)cn7C)cn6C)cn5C)cn4C)cn3C)cn2C)cn1C` [Polyamide 1], the cumulative urinary excretion in data set [1] (nearly complete by 4 h, single IV 7.5 mg/kg) is 5.7 ± 2.9 % of the administered dose. Further, the “stability at pH 2.5, 4, 7, and 10” value in the data set “pH stability analysis” was “did not display significant signs of degradation at any pH”. Further, in data set [2] (LNCaP cells co-treated with DHT), the “most active concentration for inhibition of DHT-induced genes” value was 7.4 µg/mL.
Regarding `CC(=O)N[C@@H](CNC(=O)c1cc(NC(=O)c2cc(NC(=O)c3cc(NC(=O)c4nccn4C)cn3C)cn2C)cn1C)CC(=O)Nc1cn(C)c(C(=O)Nc2cc(C(=O)Nc3cc(C(=O)Nc4cc(C(=O)NCCCN(C)CCCNC(=O)c5cccc(C(=O)O)c5)n(C)c4)n(C)c3)n(C)c2)n1` [Polyamide 2], the “cumulative urinary excretion at 24 h” value in data set [1] (24 h, single IV 5 mg/kg) is on record as 46.0 ± 15.2 % of the administered dose. The “stability at pH 2.5, 4, 7, and 10” value in “pH stability analysis” is listed as “did not display significant signs of degradation at any pH”. Further, in “Aqueous solubility”, the “solubility in aqueous solutions” value is on record as “less soluble than 1; also recorded: relatively poor aqueous solubility”. Besides, the “activity relative to polyamide 1 (AR-driven gene / PSA mRNA downregulation)” value in data set [2] (cell culture) was “tenfold increase; also recorded: equivalent activity to 1 at tenfold less concentration”. Moreover, the liver microsomal degradation entry in data set [3] is “resistant to liver microsomal degradation”. The “DNA-binding ability relative to polyamide 1” value in data set [4] is given as “without significant changes to its DNA-binding ability”.

The values above are taken from publication PMC3456924, “Single-dose pharmacokinetic and toxicity analysis of pyrrole–imidazole polyamides in mice” (Cancer Chemotherapy and Pharmacology, 2012).
